Where two headings read alike, the source gives them in different places.

Test [1] has as its target T1, CB1 receptor (Homo sapiens, UniProt P21554).
T1 construct: expressed in transfected cells
Kind of test: cell-based. The text has this: The CB1 and CB2 receptors are G-protein coupled receptors (GPCR), which influence cell function via the Gi-protein. These receptors modulate the activity of intracellular adenylate cyclase, which in turn produces the intracellular signal messenger cyclic-AMP (cAMP).
At baseline, or during non-ligand bound conditions, these receptors are constitutively active and tonically suppress adenylate cyclase activity. The binding of an agonist causes further receptor activation and produces additional suppression of adenylate cyclase activity. The binding of an inverse agonist inhibits the constitutive activity of the receptors and results in an increase in adenylate cyclase activity.
By monitoring intracellular adenylate cyclase activity, the ability of compounds to act as agonists or inverse agonists can be determined.
Test compounds were evaluated in SK-N-MC cells which, using standard transfection procedures, were stably transfected with human cDNA for pcDNA3-CRE β-gal and pcDNA3 CB1 receptor (human) or pcDNA3 CB2 receptor (human). By expressing CRE β-gal, the cells produced β-galactosidase in response to CRE promoter activation by cAMP. Cells expressing CRE β-gal and either the human CB1 or CB2 receptor will produce less β-galactosidase when treated with a CB1/CB2 agonist and will produce more β-galactosidase when treated with a CB1/CB2 inverse agonist.
The cells were grown in 96-well plates under standard cell culture conditions at 37° C. in a 5% CO2 atmosphere and culture media (wherein the media was supplemented with 2 mM L-glutamine, […] sodium pyruvate, 10% FBS (fetal bovine serum) and antibiotics).
The change in forskolin induced β-galactosidase activity was determined by setting a vehicle treated cell's activity value at 100% and expressing the β-galactosidase activity measured in a corresponding compound treated cell as a percent of the vehicle treated cell activity.
The EC50 value for functional activity for compounds tested was calculated by linear regression and was obtained from studies in which varying compound concentrations were used.
Where an EC50 value was not obtained for a test compound, the value shown (in %) represents change in functional activity and was obtained from a study in which one compound concentration was used.

For test [2], the target named is T1, CB1 receptor. Kind of test: Binding assay for CB1 agonists or inverse agonists (SK-N-MC membranes, [3H]-CP-55,940). Conditions: for IC50: Cannabinoid CB1 Receptor Binding IC50, calculated by linear regression from percent inhibition at various test concentrations; for inhibition at 0.2 µM: read-out: CB1 receptor binding percent inhibition, test concentration 0.2 μM (footnote 2); for inhibition at 1 µM: read-out: CB1 receptor binding percent inhibition, test concentration 1 μM (footnote 1); for CB1 receptor binding average percent inhibition: value shown is an average percent inhibition (footnote 5), concentration not given. In outline:
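Membranes from SK-N-MC cells stably expressing human CB1 incubated with compound and [3H]-CP-55,940 ([…]) for 90 min at 30° C in Tris-HCl pH 7.5, MgCl2, EDTA, fatty-acid-free BSA. Non-specific binding defined with 10 uM WIN 55,212; filtration, scintillation count; IC50 by linear regression.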

The target of a further test is T2, CB2 receptor (Homo sapiens, UniProt P34972).
T2 construct: expressed in transfected cells
Kind of test: Binding assay for CB2 agonists or inverse agonists (SK-N-MC membranes, [3H]-CP-55,940). Conditions: for inhibition at 0.2 µM: read-out: CB2 receptor binding percent inhibition, test concentration 0.2 μM (footnote 2); for CB2 receptor binding percent inhibition: test concentration not stated. In outline: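 Membranes from SK-N-MC cells stably expressing human CB2 were incubated with radioligand and test compounds for 90 min at 30 °C in Tris-HCl buffer, pH 7.5, with MgCl2, EDTA and fatty-acid-free BSA. Filter-bound radioactivity was counted; IC50 was derived by linear regression of percent inhibition.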

Where [3] appears, read: CB1 Receptor Functional Inverse Agonist EC50, forskolin induced β-galactosidase activity, SK-N-MC cells.
Where [4] appears, read: forskolin induced β-galactosidase activity, SK-N-MC cells, read-out: CB1 Receptor Functional Inverse Agonist EC50.

T1 sequence (P21554 whole entry): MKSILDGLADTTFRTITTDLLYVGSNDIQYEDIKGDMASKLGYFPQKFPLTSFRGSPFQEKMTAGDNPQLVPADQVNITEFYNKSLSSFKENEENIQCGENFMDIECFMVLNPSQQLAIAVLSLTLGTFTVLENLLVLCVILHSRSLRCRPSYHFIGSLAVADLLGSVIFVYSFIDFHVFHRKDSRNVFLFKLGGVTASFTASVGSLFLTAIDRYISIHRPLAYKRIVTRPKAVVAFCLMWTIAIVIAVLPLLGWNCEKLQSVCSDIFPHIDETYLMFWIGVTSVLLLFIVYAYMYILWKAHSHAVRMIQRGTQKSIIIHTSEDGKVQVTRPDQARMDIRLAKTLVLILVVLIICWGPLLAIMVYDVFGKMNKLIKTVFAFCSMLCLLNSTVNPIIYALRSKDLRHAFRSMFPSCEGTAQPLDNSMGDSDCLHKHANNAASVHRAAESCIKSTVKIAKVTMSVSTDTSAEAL
T2 sequence (P34972 whole entry): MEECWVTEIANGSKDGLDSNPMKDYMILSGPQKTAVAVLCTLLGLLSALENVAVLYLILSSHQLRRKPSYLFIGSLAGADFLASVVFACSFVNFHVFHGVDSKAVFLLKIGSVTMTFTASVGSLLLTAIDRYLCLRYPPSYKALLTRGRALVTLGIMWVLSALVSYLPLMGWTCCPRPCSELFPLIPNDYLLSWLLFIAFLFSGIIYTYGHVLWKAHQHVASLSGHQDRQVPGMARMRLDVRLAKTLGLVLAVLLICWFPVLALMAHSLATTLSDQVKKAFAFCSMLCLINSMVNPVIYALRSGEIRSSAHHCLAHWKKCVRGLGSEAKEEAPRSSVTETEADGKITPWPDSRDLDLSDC

Turning to `COc1ccc(/C=C2\CCCCc3c(C(=O)N[C@H](C)C4CCCCC4)nn(-c4ccc(Cl)cc4Cl)c32)cc1` [Cpd 214, (8E)-1-(2,4-dichloro-phenyl)-8-(4-methoxy-benzylidene)-1,4,5,6,7,8-hexahydro-cycloheptapyrazole-3-carboxylic acid [(1R)-1-cyclohexyl-ethyl]-amide], the midpoint of the response on CB1 receptor [1] (setting [3]), the EC50, lay at 30 nM. Further, on CB1 receptor [2], the IC50 was 7 nM and the inhibition at 0.2 µM turned out to be 95%. Further, the inhibition at 0.2 µM on CB2 receptor is 43%.
Regarding `O=C(N[C@@H]1c2ccccc2C[C@@H]1O)c1nn(-c2ccc(Cl)cc2Cl)c2c1CCCCC2Cc1cccc(Cl)c1` (single isomer, unassigned) [Cpd 113, (8S*)-8-(3-chloro-benzyl)-1-(2,4-dichloro-phenyl)-1,4,5,6,7,8-hexahydro-cycloheptapyrazole-3-carboxylic acid [(1R,2S)-2-hydroxy-indan-1-yl]-amide], the EC50 at CB1 receptor [1] (setting [3]) amounted to 100 nM. Besides, the inhibition at 0.5 µM on CB1 receptor [2] (read-out: CB1 receptor binding percent inhibition, test concentration 0.5 μM (footnote 10)) was determined as 44%. The “CB1 receptor binding percent inhibition” value at CB1 receptor [2] (test concentration 1 μM (footnote 1), 1 µM) is 62%; at CB1 receptor [2] (test concentration not stated), 53%. The “CB2 receptor binding percent inhibition” value on CB2 receptor is recorded as 28%.
With `C[C@H](NS(=O)(=O)/C=C/c1nn(-c2ccc(F)cc2F)c2c1CCCCC2Cc1cccc(F)c1)C1CCCCC1` (stereo partly drawn) [Cpd 94, (2E)-2-[1-(2,4-difluoro-phenyl)-8-(3-fluoro-benzyl)-1,4,5,6,7,8-hexahydro-cycloheptapyrazol-3-yl]-ethenesulfonic acid [(1S)-1-cyclohexyl-ethyl]-amide], at CB1 receptor [1] (setting [4]), the EC50 stood at 200 nM. Besides, on CB1 receptor [2], the inhibition at 1 µM worked out at 38%. The “CB2 receptor binding percent inhibition” value on CB2 receptor came out at 1%.
With `COc1ccc(/C=C2\CCCCc3c(C(=O)NN4CC5CCCC5C4)nn(-c4ccc(Cl)cc4Cl)c32)cc1` (centres unmarked) [Cpd 226, (8E)-1-(2,4-dichloro-phenyl)-8-(4-methoxy-benzylidene)-1,4,5,6,7,8-hexahydro-cycloheptapyrazole-3-carboxylic acid (hexahydro-cyclopenta[c]pyrrol-2-yl)-amide], on CB1 receptor [1] (setting [3]), a half-maximal response (EC50) required 3 nM. For the same molecule, at CB1 receptor [2], the IC50 was 40 nM. Also, the figures for the inhibition at 0.2 µM on CB1 receptor [2] and at CB2 receptor were 72% and 48%, respectively.
Turning to `Cn1nc(/C=C/S(=O)(=O)NN2CCCCC2)c2c1C(Cc1cccc(F)c1)CCCC2` (centres unmarked) [Cpd 124, (2E)-2-[8-(3-fluoro-benzyl)-1-methyl-1,4,5,6,7,8-hexahydro-cycloheptapyrazol-3-yl]-ethenesulfonic acid piperidin-1-ylamide], the EC50 at CB1 receptor [1] (setting [4]) was determined as 3400 nM. Moreover, the inhibition at 1 µM at CB1 receptor [2] stood at 14%. Besides, the “CB2 receptor binding percent inhibition” value at CB2 receptor came out at 47%.
On CB1 receptor [1] (setting [3]), `COC(=O)[C@@H](Cc1ccc(O)cc1)NC(=O)c1nn(-c2ccc(Cl)cc2Cl)c2c1CCCCC2Cc1cccc(F)c1` (stereo partly drawn) [Cpd 80, (2R)-2-{[1-(2,4-dichloro-phenyl)-8-(3-fluoro-benzyl)-1,4,5,6,7,8-hexahydro-cycloheptapyrazole-3-carbonyl]-amino}-3-(4-hydroxy-phenyl)-propionic acid methyl ester] returned an EC50 of 60 nM. Further, at CB1 receptor [2], the IC50 is 700 nM and the “CB1 receptor binding average percent inhibition” value is reported as 51%. Besides, the “CB2 receptor binding percent inhibition” value on CB2 receptor came out at 23%.
`O=C(NCc1ccc(C(F)(F)F)cc1)c1nn(-c2ccc(Cl)cc2Cl)c2c1CCCCC2Cc1ccc(Cl)cc1` (centres unmarked) [Cpd 26, 8-(4-chloro-benzyl)-1-(2,4-dichloro-phenyl)-1,4,5,6,7,8-hexahydro-cycloheptapyrazole-3-carboxylic acid 4-trifluoromethyl-benzylamide]: at CB1 receptor [1] (setting [4]), the EC50 is 600 nM. Moreover, the inhibition at 1 µM on CB1 receptor [2] came to 70%; on CB2 receptor (test concentration 1 μM (footnote 1), read-out: CB2 receptor binding percent inhibition) it was 35%. Also, the inhibition at 2 µM on CB1 receptor [2] (read-out: CB1 receptor binding percent inhibition, test concentration 2 μM (footnote 6)) was found to be 55%; at CB2 receptor (test concentration 2 μM (footnote 6), read-out: CB2 receptor binding percent inhibition), 22%. Besides, the “CB1 receptor binding percent inhibition” value on CB1 receptor [2] (test concentration not stated) is recorded as 63%. The “CB2 receptor binding percent inhibition” value at CB2 receptor was determined as 29%.
As to `C[C@@H](NC(=O)c1nn(-c2ccc(Cl)cc2Cl)c2c1CCCC/C2=C\c1ccc(F)cc1)C1CCCCC1` [Cpd 147, (8E)-1-(2,4-dichloro-phenyl)-8-(4-fluoro-benzylidene)-1,4,5,6,7,8-hexahydro-cycloheptapyrazole-3-carboxylic acid [(1R)-1-cyclohexyl-ethyl]-amide], at CB1 receptor [1] (setting [3]), the EC50 was 30 nM. Besides, at CB1 receptor [2], the IC50 is 7 nM and the inhibition at 0.2 µM was found to be 94%. Also, the inhibition at 0.2 µM on CB2 receptor came out at 23%.
For `C[C@H](NC(=O)c1nn(-c2ccc(Cl)cc2Cl)c2c1CCCC/C2=C\c1ccc(F)cc1)c1ccccc1` [Cpd 149, (8E)-1-(2,4-dichloro-phenyl)-8-(4-fluoro-benzylidene)-1,4,5,6,7,8-hexahydro-cycloheptapyrazole-3-carboxylic acid [(1S)-1-phenyl-ethyl]-amide] the same measures were 60 nM, 100 nM, 66% and 4%.
`O=C(N[C@@H](CO)c1ccccc1)c1n[nH]c2c1CCCCC2Cc1cccc(Cl)c1` (stereo partly drawn) [Cpd 165, 8-(3-chloro-benzyl)-1,4,5,6,7,8-hexahydro-cycloheptapyrazole-3-carboxylic acid [(1R)-2-hydroxy-1-phenyl-ethyl]-amide] came in with an EC50 at CB1 receptor [1] (CB1 Receptor Functional Agonist EC50, SK-N-MC cells, forskolin induced β-galactosidase activity) of 30 nM. Besides, the inhibition at 0.2 µM at CB1 receptor [2] was found to be 79%; on CB2 receptor, 98%.
In turn, `O=C(N[C@@H]1c2ccccc2C[C@@H]1O)c1nn(C2CCCCC2)c2c1CCCC[C@@H]2Cc1ccc(F)cc1` [Cpd 120, (8R)-1-cyclohexyl-8-(4-fluoro-benzyl)-1,4,5,6,7,8-hexahydro-cycloheptapyrazole-3-carboxylic acid [(1R,2S)-2-hydroxy-indan-1-yl]-amide] gave an EC50 on CB1 receptor [1] (setting [3]) of 100 nM. Also, the inhibition at 1 µM at CB1 receptor [2] came out at 9%. Besides, the “CB2 receptor binding percent inhibition” value at CB2 receptor is 16%.
On to `Cn1nc(/C=C/S(=O)(=O)NN2CCCCC2)c2c1C(Cc1ccc(F)cc1)CCCC2` (centres unmarked) [Cpd 128, (2E)-2-[8-(4-fluoro-benzyl)-1-methyl-1,4,5,6,7,8-hexahydro-cycloheptapyrazol-3-yl]-ethenesulfonic acid piperidin-1-ylamide], for which the EC50 at CB1 receptor [1] (setting [4]) was 2700 nM. In addition, at CB1 receptor [2], the inhibition at 1 µM came to 0%. Also, the “CB2 receptor binding percent inhibition” value on CB2 receptor came out at 0%.
Regarding `CCOC(=O)[C@H]1C2C=CC(C2)[C@H]1NC(=O)c1nn(-c2ccc(F)cc2F)c2c1CCCCC2Cc1cccc(F)c1` (stereo partly drawn) [Cpd 99, (2S,3R)-3-{[1-(2,4-difluoro-phenyl)-8-(3-fluoro-benzyl)-1,4,5,6,7,8-hexahydro-cycloheptapyrazole-3-carbonyl]-amino}-bicyclo[2.2.1]hept-5-ene-2-carboxylic acid ethyl ester], the EC50 on CB1 receptor [1] (setting [4]) worked out at 200 nM. At CB1 receptor [2], the inhibition at 1 µM turned out to be 17%. Besides, the “CB2 receptor binding percent inhibition” value at CB2 receptor was 24%.
`O=C(NN1CCOCC1)c1nn(-c2ccc(Cl)cc2Cl)c2c1CCCCC2Cc1cccc(F)c1` (centres unmarked) [Cpd 91, 1-(2,4-dichloro-phenyl)-8-(3-fluoro-benzyl)-1,4,5,6,7,8-hexahydro-cycloheptapyrazole-3-carboxylic acid morpholin-4-ylamide] registered an EC50 at CB1 receptor [1] (setting [3]) of 70 nM. On CB1 receptor [2], the IC50 was 300 nM and the inhibition at 1 µM came to 68%. Besides, the “CB2 receptor binding percent inhibition” value at CB2 receptor was 0%.
`COC(=O)[C@@H](Cc1ccc(F)cc1)NC(=O)c1nn(-c2ccc(Cl)cc2Cl)c2c1CCCC[C@@H]2Cc1cccc(F)c1` [Cpd 77, (2R)-2-{[(8R)-1-(2,4-dichloro-phenyl)-8-(3-fluoro-benzyl)-1,4,5,6,7,8-hexahydro-cycloheptapyrazole-3-carbonyl]-amino}-3-(4-fluoro-phenyl)-propionic acid methyl ester] registered an EC50 at CB1 receptor [1] (setting [3]) of 100 nM. Moreover, at CB1 receptor [2], the inhibition at 1 µM turned out to be 44% and the “CB1 receptor binding average percent inhibition” value came to 57%. At CB1 receptor [2] (test concentration not stated), the “CB1 receptor binding percent inhibition” value stood at 51%. The “CB2 receptor binding percent inhibition” value at CB2 receptor is 28%.

These data come from patent US8378117B2 (priority 2005, dated 2013).
